Assay [1] relates to CHO.DXB11 cells. The assay can be described thus: Media supplementation with fatty acids, methyl esters, sterols, glycerides and isoprenoids, mAb1 production. In kind it is cell-based, Chinese hamster. Conditions: supplement in ethanol fed daily per Table 5 (2.7-10.7 μM, ethanol 0.05% v/v) vs control. As for the experimental part:
(§1) Monoclonal antibodies 1 (mAb1) and 4 (mAb4) were produced using two separate cell lines according to methods described in the previous Examples. Titer, percent of high molecular weight and low molecular weight species, acidic and basic charge variants, and glycosylation species profiles were assessed as in the previous Examples.
(§2) Fatty acids were dissolved in ethanol and fed daily according to Table 5 using two different process strategies for mAb1 and mAb4. The mAb1 process strategy was maintained at 37° C. then shifted to 31° C. during late exponential phase, with the pH being maintained at 7.0±0.2 throughout the culture. The mAb4 process strategy was maintained at 36.5° C. then shifted to 33° C. during production phase, with the pH being shifted from 7.0±0.1 to 6.8±0.1 in the late exponential phase. Both process strategies were maintained at 30% air saturation

A further assay relates to cell line producing mAb4. In words: Media supplementation with fatty acids, methyl esters, sterols, glycerides and isoprenoids, mAb4 production. Format: cell-based. The note with it: supplement in ethanol fed daily per Table 5 (5.0-20.0 μM, ethanol 0.09% v/v) vs control. As for the experimental part:
as §1, §2

The subject of assay [2] is CHO.DXB11 cells. The assay can be described thus: Oleic acid in bench-scale bioreactors, baseline without fatty acids or ethanol, mAb 1. Conditions: oleic acid 40 μM + ethanol 0.057% v/v fed daily vs baseline without both, 14 day fed-batch. In kind it is cell-based, Chinese hamster. The source says: Feed media was supplemented with fatty acids to determine if fatty acids altered mAb properties. Feed media was fed daily in a fed-batch process using bench-scale (2 L working volume) bioreactors.

The test system of assay [3] is CHO.DXB11 cells. In words: Oleic acid in bench-scale bioreactors, baseline with ethanol, mAb 1. In kind it is cell-based, Chinese hamster. The note with it: oleic acid 40 μM fed daily vs baseline w/ethanol, 14 day fed-batch. From the text: Ethanol supplemented media was further supplemented with fatty acids to determine if fatty acids altered mAb properties. Feed media was fed daily in a fed-batch process using bench-scale (2 L working volume) bioreactors. […] Media used for baseline measurements contains ethanol but no fatty acids.

The next assay deals with CHO.DXB11 derived clone. The assay can be described thus: Sodium chloride supplementation, microscale bioreactors, mAb3. Format: cell-based, Chinese hamster. Conditions: sodium chloride 4.59 mM and 9.18 mM fed daily, 12 day fed-batch. As for the experimental part: Monoclonal antibody 3 (mAb3) is a monoclonal antibody produced using recombinant DNA technology. The expression vector is fully synthetic with both heavy- and light-chain gene sequences regulated by strong constitutive promoters. Gene sequences were confirmed by DNA sequencing. The expression vector was linearized by restriction enzymes and stably transfected into CHO.DXB11 cells by electroporation. Gene amplification steps were performed with increasing concentrations of methotrexate. Single cell cloning was performed after gene amplification. Select single cell clones were expanded and cryopreserved. The cell line used was a CHO.DXB11 derived clone.
Sodium chloride was fed daily at 4.59 mM and 9.18 mM using two different process strategies. Process strategy 1 was maintained at 36.5° C. then shifted to 31° C. during production phase. Process strategy 2 was maintained at 36.5° C. then shifted to 31° C. during production phase then re-shifted back to 36.5° C. during late production phase. Both process strategies were maintained at 30% air saturation and a pH of 7.0±0.2. Other glycan species and HMW % and LMW % are not listed because no significant change in levels were observed from sodium chloride supplementation.

[4] abbreviates: process strategies 1 and 2, mAb3.

`CCCCCCCC(=O)OCC(O)CO` (racemic) [1-octanoyl-rac-glycerol]: in the assay with CHO.DXB11 cells [1], the “Effect on G0F glycan species” value is “decreased”, the “Effect on acidic charge variants” value is “decreased”, the “Effect on low molecular weight species” value was “decreased” and the Effect on titer result is listed as “increased”. Also, in the assay on cell line producing mAb4, the “Effect on acidic charge variants” value is “decreased”, the “Effect on relative percentage of G0F glycan species” value was “decreased”, the “Effect on relative percentage of G0 glycan species” value is reported as “decreased” and the “Effect on relative percentage of HMW species” value is on record as “decreased”. In addition, in the assay with cell line producing mAb4, the “Effect on relative percentage of Man5 glycan species” value is “decreased” and the “Effect on relative percentage of basic charge variants” value is “decreased”.
For the compound `CC(C)CCC[C@@H](C)[C@H]1CC[C@H]2[C@@H]3CC=C4C[C@@H](O)CC[C@]4(C)[C@H]3CC[C@]12C` [cholesterol], in the assay with CHO.DXB11 cells [1], the “Effect on G0 glycan species” value is on record as “Decreased” and the “Effect on basic charge variants” value is reported as “decreased”. Also, in the assay on cell line producing mAb4, the “Effect on relative percentage of G0 glycan species” value is on record as “decreased”, the “Effect on relative percentage of Man5 glycan species” value is given as “decreased” and the “Effect on relative percentage of basic charge variants” value is on record as “decreased”.
In the case of `CCCCC/C=C\C/C=C\CCCCCCCC(=O)O` [linoleic acid], in the assay with CHO.DXB11 cells [1], the “Effect on acidic charge variants” value is “decreased”, the “Effect on low molecular weight species” value was “decreased” and the Effect on titer entry is given as “increased”. Besides, in the assay with cell line producing mAb4, the “Effect on LMW species” value is given as “decreased”, the “Effect on acidic charge variants” value is reported as “decreased”, the “Effect on relative percentage of G0 glycan species” value is reported as “decreased” and the “Effect on relative percentage of Man5 glycan species” value was “decreased”.
Regarding `CCCCCCCC(=O)OC` [methyl octanoate], in the assay with CHO.DXB11 cells [1], the “Effect on G0F glycan species” value is recorded as “decreased”, the “Effect on G0 glycan species” value is given as “Decreased” and the “Effect on acidic charge variants” value was “decreased”. Also, in the assay with cell line producing mAb4, the “Effect on relative percentage of G0 glycan species” value is recorded as “decreased”, the “Effect on relative percentage of HMW species” value is listed as “decreased”, the “Effect on relative percentage of Man5 glycan species” value is listed as “decreased” and the “Effect on relative percentage of basic charge variants” value is given as “decreased”.
As to `CCCCCCCCCCCCCC(=O)O` [myristic acid], in the assay on CHO.DXB11 cells [1], the “Effect on G0F glycan species” value is listed as “decreased”, the “Effect on G0 glycan species” value was “Decreased” and the “Effect on acidic charge variants” value is on record as “decreased”. In addition, in the assay on cell line producing mAb4, the “Effect on acidic charge variants” value was “decreased”, the “Effect on relative percentage of G0 glycan species” value is on record as “decreased”, the “Effect on relative percentage of HMW species” value was “decreased” and the “Effect on relative percentage of Man5 glycan species” value is on record as “decreased”. Also, the “Effect on relative percentage of basic charge variants” value with cell line producing mAb4 is on record as “decreased”.
In the case of `CCCCCCCC/C=C\CCCCCCCC(=O)O` [oleic acid], in the assay with CHO.DXB11 cells [2], the “Effect on G0F glycan species” value was “decreased”, the “Effect on G0 glycan species” value is given as “decreased”, the “Effect on G1F glycan species” value is on record as “increased” and the “Effect on G2F glycan species” value is recorded as “increased”. Moreover, in the assay on CHO.DXB11 cells [2], the “Effect on Man5 glycan species” value was “decreased”, the “Effect on acidic charge variants” value was “decreased”, the “Effect on high molecular weight species” value is given as “decreased” and the “Effect on monoclonal antibody titer” value is given as “increased”. In the assay on CHO.DXB11 cells [3], the “Effect on G0F glycan species” value is “increased”, the “Effect on G0 glycan species” value was “decreased”, the “Effect on G1F glycan species” value is listed as “decreased” and the “Effect on G2F glycan species” value is “decreased”. Further, in the assay on CHO.DXB11 cells [3], the “Effect on Man5 glycan species” value is given as “decreased”, the “Effect on acidic charge variants” value was “decreased”, the “Effect on antibody titer” value was “decreased” and the “Effect on basic charge variants” value was “increased”. Also, in the assay with CHO.DXB11 cells [3], the “Effect on high molecular weight species” value was “increased” and the “Effect on low molecular weight species” value is “increased”. Besides, in the assay on CHO.DXB11 cells [1], the “Effect on G0F glycan species” value is “decreased”, the “Effect on G0 glycan species” value is “Decreased” and the “Effect on acidic charge variants” value is “decreased”. Moreover, in the assay on cell line producing mAb4, the “Effect on acidic charge variants” value was “decreased”, the “Effect on relative percentage of G0 glycan species” value is “decreased” and the “Effect on relative percentage of Man5 glycan species” value was “decreased”.
`CCCCCCCCCCCCCCCC(=O)O` [palmitic acid]: in the assay on CHO.DXB11 cells [1], the “Effect on G0 glycan species” value was “Decreased”, the “Effect on acidic charge variants” value was “decreased”, the “Effect on basic charge variants” value was “decreased” and the “Effect on low molecular weight species” value is “decreased”. Besides, in the assay with cell line producing mAb4, the “Effect on LMW species” value is “decreased” and the “Effect on acidic charge variants” value is “decreased”.
`[Cl-].[Na+]` [sodium chloride]: in the assay with CHO.DXB11 derived clone (mAb3), the “Effect on HMW %” value is “did not change” and the “Effect on LMW %” value is on record as “did not change”. Further, in the assay with CHO.DXB11 derived clone (setting [4]), the “Effect on G0F glycan species” value is recorded as “decreased”, the “Effect on G0 glycan species” value is on record as “increased”, the “Effect on G1F glycan species” value is listed as “increased” and the “Effect on G2F glycan species” value is listed as “increased”. For the same compound, in the assay on CHO.DXB11 derived clone (setting [4]), the “Effect on Man5 glycan species” value is recorded as “increased”, the “Effect on acidic charge variants” value was “increased”, the “Effect on basic charge variants” value is recorded as “increased” and the “Effect on monoclonal antibody titer” value is given as “decreased”. In the assay with CHO.DXB11 derived clone (process strategies 1 and 2, mAb3, listed as Sodium chloride), the “Effect on monoclonal antibody titer” value is on record as “reduced”.
For the compound `CCCCCCCCCCCCCCCCCC(=O)O` [stearic acid], in the assay with CHO.DXB11 cells [1], the “Effect on G0 glycan species” value is listed as “Decreased”, the “Effect on basic charge variants” value is reported as “decreased” and the “Effect on low molecular weight species” value was “decreased”. The “Effect on acidic charge variants” value in the assay on cell line producing mAb4 is on record as “decreased”.
As for `Cc1ccc(C(C)C)c(O)c1` [thymol], in the assay on CHO.DXB11 cells [1], the “Effect on G0 glycan species” value is reported as “Decreased”, the “Effect on acidic charge variants” value was “decreased”, the “Effect on low molecular weight species” value is “decreased” and the Effect on titer result is on record as “increased”. In the assay with cell line producing mAb4, the “Effect on LMW species” value is “decreased”, the “Effect on acidic charge variants” value is “decreased”, the “Effect on relative percentage of HMW species” value is listed as “decreased” and the “Effect on relative percentage of Man5 glycan species” value is “decreased”. Further, in the assay with cell line producing mAb4, the “Effect on relative percentage of basic charge variants” value is “decreased”.
cholesteryl acetate: in the assay with CHO.DXB11 cells [1], the “Effect on G0F glycan species” value is “decreased”, the “Effect on G0 glycan species” value is recorded as “Decreased” and the “Effect on Man5 glycan species” value is given as “Decreased”. Further, in the assay on cell line producing mAb4, the “Effect on LMW species” value is “decreased”, the “Effect on acidic charge variants” value was “decreased”, the “Effect on relative percentage of G0 glycan species” value is listed as “decreased” and the “Effect on relative percentage of HMW species” value was “decreased”. In addition, in the assay on cell line producing mAb4, the “Effect on relative percentage of Man5 glycan species” value was “decreased” and the “Effect on relative percentage of basic charge variants” value is recorded as “decreased”.

Source of the values: patent US10703800B2, “Cell culture medium” (La Jolla Biologics, Inc., priority 2016, dated 2020).
